As a reminder, the IC50 is the concentration at which inhibition is half-maximal.

This is an account of results in ChEMBL document CHEMBL1147259, “The structure of Palau'amide, a potent cytotoxin from a species of the marine cyanobacterium Lyngbya” (J Nat Prod, 2003).

The assay concerns KB. Put plainly: Cytotoxicity against human KB cells. In kind it is functional, cell-based.

Compound `C#CCCC[C@@H](O)[C@@H](C)[C@@H]1C/C=C(\C)C(=O)O[C@H](CC(C)C)C(=O)N[C@@H](C)C(=O)N(C)[C@H](Cc2ccccc2)C(=O)N(C)CC(=O)N[C@H]([C@H](C)CC)C(=O)N(C)[C@@H](C)C(=O)O1` [PALAU'AMIDE] came in with an IC50 of 13 nM.
